Experiments:
healthy dogs = assay: PK/PD studies of diuretic effect (urinary volume) after one-day and fourteen-day oral administration; format: in vivo; settings: for Urinary volume on day 1 / Urinary volume on day 14: healthy dogs
Method: Two pharmacokinetics studies (PK/PD) in healthy dogs have been performed to investigate and model the pharmacodynamic effects of torasemide, furosemide and placebo after a one-day and fourteen-day oral administration of furosemide at the following doses: 1 and 4 mg/kg/12 hours, and of torasemide at the following doses: 0.2, 0.25, 0.30 and 0.50 mg/kg/day. • 1 and 4 mg/kg furosemide have been administered to five dogs on the basis of repeated oral administration twice daily for 14 days (corresponding to 2 and 8 mg/kg/day). • 0 (placebo), 0.2, 0.25, 0.30 and 0.50 mg/kg torasemide have been administered to five dogs on the basis of repeated oral administration daily for 14 days.

[1] = system: dog model having no clinical signs of heart failure; settings: 0.2 mg/kg/day torasemide versus 2 mg/kg/day furosemide, seven days; cited from earlier work
[2] = system: dogs that had become resistant to furosemide; settings: torasemide dose ten times lower (1/10) than reference furosemide dose; cited from earlier work
[3] = furosemide 2 mg/kg/day (1 mg/kg/12 hours) oral
[4] = furosemide 8 mg/kg/day (4 mg/kg/12 hours) oral
[5] = torasemide 0.20 mg/kg/day oral once daily
[6] = torasemide 0.25 mg/kg/day oral once daily
[7] = torasemide 0.30 mg/kg/day oral once daily
[8] = torasemide 0.5 mg/kg/day oral once daily

SMILES | Urinary volume on day 1 (healthy dogs; [3]) | Urinary volume on day 14 (healthy dogs; [3]) | Urinary volume on day 1 (healthy dogs; [4]) | Urinary volume on day 14 (healthy dogs; [4]) | Urinary volume compared with test control (placebo) (healthy dogs; 0.20 to 0.50 mg/kg/day of torasemide, day 1 and day 14) | Urinary volume on day 1 (healthy dogs; [5]) | Urinary volume on day 14 (healthy dogs; [5]) | Urinary volume on day 1 (healthy dogs; [6]) | Urinary volume on day 14 (healthy dogs; [6]) | Urinary volume on day 1 (healthy dogs; [7]) | Urinary volume on day 14 (healthy dogs; [7]) | Urinary volume on day 1 (healthy dogs; [8]) | Urinary volume on day 14 (healthy dogs; [8]) | Diuretic potency compared with furosemide [1] | Duration of diuretic effect compared with furosemide [1] | Diuretic potency compared with reference dose of furosemide [2]
NS(=O)(=O)c1cc(C(=O)O)c(NCc2ccco2)cc1Cl [Furosemide, furosemide] | 374 mL | 532 mL | 620 mL | 1033 mL | – | – | – | – | – | – | – | – | – | – | – | –
Cc1cccc(Nc2ccncc2S(=O)(=O)NC(=O)NC(C)C)c1 [Torasemide, N-[(isopropylamino)carbonyl]-4-[(3-methylphenyl)amino] pyridine-3-sulfonamide] | – | – | – | – | > 220 mL | 455 mL | 561 mL | 500 mL | 696 mL | 659 mL | 816 mL | 700 mL | 1100 mL | as potent as furosemide | longer diuretic effect | as potent in producing a diuretic effect

Source: patent US12048677B2, “Compositions and uses thereof for the treatment of heart failure in domestic animals” (CEVA SANTE ANIMALE, priority 2014, dated 2024)
